Key:
MV-4-11 xenograft = test: Anti-tumor efficacy in subcutaneous MV-4-11 xenograft model; type: in vivo, female BALB/c nude mice; details: i.v.; GFH009 maleate 2.5, 5.0, 10.0 mg/kg QW or BIW; enitociclib 10.0 mg/kg QW; 3 weeks
Experimental: Figure 6 Anti-tumor efficacy of GFH009 in MV-4-11 xenograft model. MV-4-11 xenograft in female BALB/c nude mice were treated with GFH009 or enitociclib at the indicated doses (n = 8 mice per group). Results are expressed as mean ± SEM. ^* P < 0.05, ^**** P < 0.0001, two-way ANOVA with Dunnett’s multiple comparisons test analysis compared to Vehicle control group.
In vivo studies of tumor suppression were conducted in female BALB/c nude mice (Beijing Vital River Laboratory Animal Technology Co, Ltd., Changping, Beijing, China) bearing MV-4-11 xenografts (ATCC, Rockville, MD, USA). Each mouse was inoculated subcutaneously into the right dorsal-region with 5.0 × 10^6 cultured MV-4-11 cells in a total volume of 0.2 ml solution and allowed to develop xenograft tumors. Once tumor size had reached […], mice were divided into groups to receive 1 of 8 different treatment preparations dosed intravenously via the tail vein (Table 2). […] Enitociclib was administered as a 1.0 mg/mL solution in ultrapure water with 5% DMSO. Vehicle control was 50 mM PBS with no dissolved treatment drug.
(§1) Animals dosed BIW were given treatments on 2 consecutive days. Weights were recorded for each mouse every day and tumor volumes assessed 3 times a week. Total treatment administration occurred across 3 consecutive weeks.
Subcutaneous tumor volume (TV) was calculated as TV = (L × W^2)/2, where L was the length and W was the width of the tumor [11]. […] TGI was calculated as TGI (%) = (1 – avTi-0/ avCi-0)) × 100, where avTi-0 is the mean TV of the treatment group on a given day minus the mean TV of this treatment group on the day of group assignment, and avCi-0 is the mean TV of the vehicle control group on a given day minus the mean TV of the vehicle control group on the day of group assignment.
Tumor volume data was subjected to a base-10 logarithmic transformation and subsequent comparisons of TV across groups was made using two-way ANOVA (Dunnett’s multiple comparisons test). All plotting and statistical analyses were conducted using GraphPad Prism 6.00 (GraphPad Software).

[1] = Body weight change in MV-4-11 xenograft mice; type: in vivo, female BALB/c nude mice; details: GFH009 maleate QW or BIW; enitociclib 10.0 mg/kg QW; i.v.
Experimental: Figure 7 Effect of GFH009 on body weight change in MV-4-11 xenografts. Body weight change of MV-4-11 xenograft (Figure 6) are expressed as mean ± SEM. ^* […], ^** P < 0.01, ^**** P < 0.0001, two-way ANOVA with Dunnett’s multiple comparisons test analysis compared to the vehicle-treated (control) group.
as §1
Relative change in body weight (RCBW) was determined as RCBW (%) = (Bwi – BW0)/BW0 × 100, where Bwi is body weight of a given mouse on a given day, and BW0 is initial body weight on the day they were assigned to a treatment group.

COc1cc(F)ccc1-c1cc(Nc2cc(CS(C)(=N)=O)ccn2)ncc1F (centres unmarked) [enitociclib, reference compound]
Tumor growth (total volume) compared to the vehicle control (MV-4-11 xenograft): inhibited tumor growth | Body weight of the mice during the administration period [1]: decreased dramatically
